In US7402595B2, “JNK inhibitor” (Takeda Pharmaceutical Company Limited, priority 2002, dated 2008):
pIC50: −log10 of the molar value.

Key:
human JNK1 = target: T1, human JNK1 (Homo sapiens, UniProt P45983); assay: Measurement of JNK inhibitory activity (32P uptake into cJUN by active JNK1); assay type: biochemical; conditions: 2.5 μM ATP, 30° C., 60 min
T1 construct: His6 (Met-Ala-His6, read from primer JNK1-U) (N); made in house; host or cells: Sf-21 insect cells (baculovirus BAC-HJNK1 co-infected with BAC-caMKK7); cJUN substrate from E. coli JM109
T1 sequence (P45983 1-384 isoform P45983-2): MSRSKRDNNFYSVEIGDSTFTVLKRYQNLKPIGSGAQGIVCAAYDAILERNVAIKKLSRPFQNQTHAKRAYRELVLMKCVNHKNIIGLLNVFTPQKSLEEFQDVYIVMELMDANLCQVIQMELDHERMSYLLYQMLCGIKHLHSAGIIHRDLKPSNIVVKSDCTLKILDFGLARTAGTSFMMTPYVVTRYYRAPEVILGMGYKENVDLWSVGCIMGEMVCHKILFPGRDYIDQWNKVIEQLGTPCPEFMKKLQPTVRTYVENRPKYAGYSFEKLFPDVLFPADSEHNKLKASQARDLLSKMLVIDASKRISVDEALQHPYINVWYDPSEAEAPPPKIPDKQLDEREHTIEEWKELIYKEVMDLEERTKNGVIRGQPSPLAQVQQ
Protocol: (4) Preparation of Active JNK1
Sf-21 cells were seeded to achieve 1×10^6 cells/ml in 100 ml of Sf-900 II SFM medium (GIBCO BRL) containing 10% fetal calf serum and cultured at 27° C. for 24 hrs. The recombinant baculovirus virus stock BAC-HJNK1 and BAC-caMKK7 were added by 0.2 ml each, and the cells were further cultured for 60 hrs. The cells were separated from the culture solution by centrifugation (3000 rpm, 10 min.) and washed twice with PBS. The cells were suspended in 10 ml of Lysis buffer (25 mM HEPES (pH 7.5), 1% Triton X, 130 mM NaCl, 1 mM EDTA, 1 mM DTT, 25 mM β-glycerophosphate, 20 μM leupeptin, 1 mM APMSF, 1 mM sodium orthovanadate) and ruptured by 4 times of treatment with a homogenizer (POLYTRON) at 20000 rpm, 30 seconds each. Active JNK1 was purified from a supernatant obtained by centrifugal separation (40000 rpm, 45 min.) by the use of Anti-FLAG M2 Affinity Gel (Sigma).
(5) Preparation of Recombinant cJUN
Escherichia coli JM109 (Toyobo Co., Ltd.) was transformed with a plasmid pGEJUN to give ampicillin resistant pGEJUN/JM109. The pGEJUN/JM109 strain was cultured overnight in 150 ml of LB medium (10 g/l tripton, 5 g/l yeast extract, 10 g/l sodium chloride) containing 50 μg/ml ampicillin at 200 rpm, 37° C. The culture solution (15 ml) was added to a fresh LB medium (150 ml) and cultured at 37° C. for 2 hrs. at 200 rpm. 1 mM IPTG (Wako Pure Chemical Industries, Ltd.) was added and the cells were further cultured for 6 hrs. The culture solution was centrifuged at 8000 rpm for 10 min. and bacterial cells were recovered, washed with PBS and frozen at −80° C. The cells were suspended in 20 ml of lysis buffer (B-PER bacterial protein extraction reagent (Pierce), Protease inhibitor Complete (Boehringer)) and shaken at room temperature for 10 min. After centrifugal separation (14000 rpm, 15 min., 4° C.), and GST-cJUN fused protein was purified from the supernatant using Redipack GST Purification Module (Amersham-Pharmacia Biotech).
(6) Measurement of JNK Inhibitory Activity
A reaction solution (37.5 μl, 25 mM HEPES (pH 7.5), 10 mM magnesium acetate, 1 mM DTT) containing 50 ng of active JNK1 and 1 μg of cJUN […]. The test compound (2.5 μl) was added and the mixture was incubated at 30° C. for 5 min. […] After reacting at 30° C. for 60 min., 50 μl of 20% TCA solution was added to stop the reaction. The reaction solution was left standing at 0° C. for 20 min. and an acid-insoluble fraction was transferred onto a GF/C filter (Packard Japan) using Cell Harvester (Packard Japan), and washed with 250 mM phosphoric acid. After drying at 45° C. for 60 min., 40 μl of Microscint 0 (Packard Japan) was added and the radioactivity was measured on TopCount (Packard Japan).

p38α = p38α (Homo sapiens, UniProt Q16539); assay: Inhibitory action on p38α; assay type: biochemical
p38α, sequence (Q16539 whole entry): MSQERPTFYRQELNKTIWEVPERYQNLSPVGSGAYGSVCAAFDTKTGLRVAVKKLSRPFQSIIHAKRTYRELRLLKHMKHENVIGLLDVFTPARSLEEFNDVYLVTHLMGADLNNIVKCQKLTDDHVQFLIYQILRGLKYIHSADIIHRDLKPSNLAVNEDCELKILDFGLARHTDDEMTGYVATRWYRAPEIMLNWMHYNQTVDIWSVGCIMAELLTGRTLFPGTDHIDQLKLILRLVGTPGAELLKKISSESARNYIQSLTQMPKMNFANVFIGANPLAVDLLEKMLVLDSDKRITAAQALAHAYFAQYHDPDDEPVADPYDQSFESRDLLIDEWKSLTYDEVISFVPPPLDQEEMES

ERK1 = ERK1 (Homo sapiens, UniProt P27361); assay: Inhibitory action on ERK1; assay type: biochemical
ERK1, sequence (P27361 whole entry): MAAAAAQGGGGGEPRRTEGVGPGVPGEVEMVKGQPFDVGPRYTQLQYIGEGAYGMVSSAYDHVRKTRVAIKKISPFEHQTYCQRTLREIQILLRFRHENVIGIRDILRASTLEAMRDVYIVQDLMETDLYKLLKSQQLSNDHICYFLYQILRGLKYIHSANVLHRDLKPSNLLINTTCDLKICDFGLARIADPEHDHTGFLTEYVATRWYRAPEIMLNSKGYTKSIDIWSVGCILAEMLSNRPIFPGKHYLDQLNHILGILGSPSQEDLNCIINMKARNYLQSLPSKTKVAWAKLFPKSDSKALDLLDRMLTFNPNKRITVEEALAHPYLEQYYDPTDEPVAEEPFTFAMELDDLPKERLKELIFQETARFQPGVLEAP

Male wistar rats = assay: Pressure overloaded cardiac hypertrophy induced by an abdominal aortic stenosis (rat); assay type: in vivo; conditions: 10 mg/kg p.o. once a day, day 7 after aortic stenosis
Protocol: Preparation of the Model of Pressure Overloaded Cardiac Hypertrophy Induced by an Abdominal Aortic Stenosis (Rat)
Male wistar rats (body weight 260-300 g, CLEA Japan, Inc) were used. Under xylazine (10 mg/kg, i.p.) and ketamine (50 mg/kg, i.p.) anesthesia, abdominal aorta was exposed by median laparotomy. The left and right renal arteries were detached from the back, a 22G injection needle was put along the artery and it was ligated together with the aorta using a 2-0 silk thread just below the right renal artery. Then, the injection needle was removed to make a stenosis in the abdominal aorta. The abdomen was closed and the rats were housed commonly. For a sham group, the abdomen was closed without ligation (no stenosis) with a silk thread. A compound was suspended in a 0.5% methyl cellulose solution (2 ml/kg) and orally administered at a dose of 10 mg/kg 1 hr. before aortic stenosis and once a day from day 1 (the next day of stricture) to day 7 after operation. Vehicle (0.5% methyl cellulose solution) was administered instead of the compound to the sham group and control group. At day 7 after the preparation of aortic stenosis, the body weight was measured, and the heart was removed and then extracted under pentobarbital (50 mg/kg, i.p.) anesthesia. The right and left artium and right ventricle were excised from the heart and the wet weight of the left ventricle was measured. The left ventricle weight to body weight ratio of each rat was calculated and an increase from the average value of the sham group was calculated. Inhibitory rate of each group to a cardiac hypertrophy was calculated based on the control group as 100%.

Row | SMILES | pIC50 (human JNK1) | inhibition at 10 µM (p38α) [%] | inhibition at 10 µM (ERK1) [%] | Inhibitory rate (cardiac hypertrophy, control group as 100%) (Male wistar rats) | Left ventricular weight/body weight ratio (mg/g) amount of increase from sham group (Male wistar rats) | Left ventricular weight/body weight ratio (mg/g) value (Male wistar rats) [mg/g]
1 | COC(=O)c1c(-c2ccccc2)c2cc(N)ccc2c(=O)n1Cc1ccc2c(c1)OCO2 [Example 156, 6-amino-2-(benzo[1,3]dioxol-5-ylmethyl)-1-oxo-4-phenyl-1,2-dihydroisoquinoline-3-carboxylic acid methyl ester] | 7.55 | 10 | 16 |  |  | 
2 | COC(=O)c1c(-c2ccccc2)c2cc(Br)ccc2c(=O)n1Cc1ccc2c(c1)OCO2 [Example 24, 2-(benzo[1,3]dioxol-5-ylmethyl)-6-bromo-1-oxo-4-phenyl-1,2-dihydroisoquinoline-3-carboxylic acid methyl ester] | 7.74 | 18 | 39 |  |  | 
3 | CCN(CC)NC(=O)c1ccc(Cn2c(C(=O)OC)c(-c3ccccc3)c3cc(Br)ccc3c2=O)cc1 [Example 356, 6-bromo-2-[4-(N′,N′-diethylhydrazinocarbonyl)benzyl]-1-oxo-4-phenyl-1,2-dihydroisoquinoline-3-carboxylic acid methyl ester] | 8.12 | 0 | 0 |  |  | 
4 | CCCC(=O)c1c(-c2ccccc2)c2cc(Cl)ccc2c(=O)n1Cc1ccc(S(N)(=O)=O)cc1 [Example 455, 4-(6-chloro-3-butyryl-1-oxo-4-phenyl-1H-isoquinolin-2-ylmethyl)benzenesulfonamide] | 7.47 | 0 | 0 |  |  | 
5 | COC(=O)c1c(-c2ccccc2)c2cc(Br)ccc2c(=O)n1CC1CCN(C(C)=O)CC1 [Example 112, 2-(1-acetylpiperidin-4-ylmethyl)-6-bromo-1-oxo-4-phenyl-1,2-dihydroisoquinoline-3-carboxylic acid methyl ester] | 5.52 | 0 | 0.095 |  |  | 
6 | COC(=O)c1c(-c2ccccc2)c2cc(Br)ccc2c(=O)n1Cc1ccc(C(=O)NCCN2CCCC2)cc1 [Example 141, 6-bromo-1-oxo-4-phenyl-2-[4-(2-(pyrrolidin-1-yl)ethylcarbamoyl)benzyl]-1,2-dihydroisoquinoline-3-carboxylic acid methyl ester] | 7.43 | 10 | 4 |  |  | 
7 | COC(=O)c1c(-c2ccccc2)c2cc(Br)ccc2c(=O)n1Cc1ccc(NC(=O)CCC(=O)O)cc1 [Example 122, 6-bromo-2-[4-(3-carboxypropionylamino)benzyl]-1-oxo-4-phenyl-1,2-dihydroisoquinoline-3-carboxylic acid methyl ester] | 8.04 | 0 | 0 |  |  | 

Continued, in another order:

Row | pIC50 (human JNK1) | inhibition at 10 µM (p38α) [%] | inhibition at 10 µM (ERK1) [%] | SMILES | Inhibitory rate (cardiac hypertrophy, control group as 100%) (Male wistar rats) | Left ventricular weight/body weight ratio (mg/g) amount of increase from sham group (Male wistar rats) | Left ventricular weight/body weight ratio (mg/g) value (Male wistar rats) [mg/g]
8 | 7.41 | 0 | 0 | CC(=O)c1c(-c2ccccc2)c2cc(Br)ccc2c(=O)n1Cc1ccc(S(N)(=O)=O)cc1 [Example 415, 3-acetyl-6-bromo-4-phenyl-2-(4-sulfamoylbenzyl)-2H-isoquinolin-1-one] |  |  | 
9 | 8.04 | 0 | 13 | CCC(=O)c1c(-c2ccccc2)c2cc(Br)ccc2c(=O)n1Cc1ccc(C(=O)O)cc1 [Example 462, 4-(6-bromo-1-oxo-4-phenyl-3-propionyl-1H-isoquinolin-2-ylmethyl)benzoic acid] |  |  | 
10 |  | 2 | 0 | COC(=O)c1c(-c2ccccc2)c2cc(Br)ccc2c(=O)n1Cc1ccc(S(C)(=O)=O)cc1 [Example 94, 6-bromo-2-(4-methanesulfonylbenzyl)-1-oxo-4-phenyl-1,2-dihydroisoquinoline-3-carboxylic acid methyl ester] | rate 40%) |  | 
11 | 7.49 | 0 | 5 | C/C(N)=C/C(=O)c1c(-c2ccccc2)c2cc(Br)ccc2c(=O)n1Cc1ccc(S(C)(=O)=O)cc1 [Example 546, 3-[(2Z)-3-aminobut-2-enoyl]-6-bromo-2-(4-methanesulfonylbenzyl)-4-phenyl-2H-isoquinolin-1-one] |  |  | 
12 | 7.34 | 0 | 1 | CCC(=O)c1c(-c2ccccc2)c2cc(Br)ccc2c(=O)n1Cc1ccc(S(C)(=O)=O)cc1 [Example 315, 6-bromo-2-(4-methanesulfonylbenzyl)-4-phenyl-3-propionyl-2H-isoquinolin-1-one] | rate 44%) | 0.29 ± 0.05 (Inhibitory mg/g | 2.19 ± 0.05
13 | 7.85 | 20 | 0 | COC(=O)c1c(-c2ccccc2)c2cc(Br)ccc2c(=O)n1Cc1ccc(S(N)(=O)=O)cc1 [Example 93, 6-bromo-1-oxo-4-phenyl-2-(4-sulfamoylbenzyl)-1,2-dihydroisoquinoline-3-carboxylic acid methyl ester] |  |  | 
14 | 7.70 | 0 | 0 | COC(=O)c1c(-c2ccccc2)c2cc(Br)ccc2c(=O)n1Cc1ccc(C(=O)O)cc1 [Example 102, 6-bromo-2-(4-carboxybenzyl)-1-oxo-4-phenyl-1,2-dihydroisoquinoline-3-carboxylic acid methyl ester] |  |  | 
15 | 8.17 | 0 | 37 | CCC(=O)c1c(-c2ccccc2)c2cc(Br)ccc2c(=O)n1Cc1ccc(-c2nnn[nH]2)cc1 [Example 495, 6-bromo-4-phenyl-3-propionyl-2-[4-(1H-tetrazol-5-yl)benzyl]-2H-isoquinolin-1-one] |  |  | 
16 | 7.80 | 0 | 22 | CCC(=O)c1c(-c2ccccc2)c2cc(Cl)ccc2c(=O)n1Cc1ccc(C(=O)O)cc1 [Example 463, 4-(6-chloro-1-oxo-4-phenyl-3-propionyl-1H-isoquinolin-2-ylmethyl)benzoic acid] |  |  | 
